This is an account of results in US10251892B2, “Bicyclic heterocycles as FGFR4 inhibitors” (Incyte Corporation, priority 2015, dated 2019).

In the assay the target is FGFR3 enzyme (Homo sapiens (Human), UniProt P22607). As to the kind of experiment: FGFR Enzymatic Assay (peptide phosphorylation, FRET), FGFR3. It is filed as biochemical. The following applies: IC50 ratio showing FGFR3 selectivity; pre-incubated for 4 hours. As for the experimental part: The inhibitor potency of the exemplified compounds was measured in an enzyme assay that measures peptide phosphorylation using FRET measurements to detect product formation. Inhibitors were serially diluted in DMSO and a volume of 0.5 μL was transferred to the wells of a 384-well plate.
Chain of FGFR3 enzyme (P22607 23-806): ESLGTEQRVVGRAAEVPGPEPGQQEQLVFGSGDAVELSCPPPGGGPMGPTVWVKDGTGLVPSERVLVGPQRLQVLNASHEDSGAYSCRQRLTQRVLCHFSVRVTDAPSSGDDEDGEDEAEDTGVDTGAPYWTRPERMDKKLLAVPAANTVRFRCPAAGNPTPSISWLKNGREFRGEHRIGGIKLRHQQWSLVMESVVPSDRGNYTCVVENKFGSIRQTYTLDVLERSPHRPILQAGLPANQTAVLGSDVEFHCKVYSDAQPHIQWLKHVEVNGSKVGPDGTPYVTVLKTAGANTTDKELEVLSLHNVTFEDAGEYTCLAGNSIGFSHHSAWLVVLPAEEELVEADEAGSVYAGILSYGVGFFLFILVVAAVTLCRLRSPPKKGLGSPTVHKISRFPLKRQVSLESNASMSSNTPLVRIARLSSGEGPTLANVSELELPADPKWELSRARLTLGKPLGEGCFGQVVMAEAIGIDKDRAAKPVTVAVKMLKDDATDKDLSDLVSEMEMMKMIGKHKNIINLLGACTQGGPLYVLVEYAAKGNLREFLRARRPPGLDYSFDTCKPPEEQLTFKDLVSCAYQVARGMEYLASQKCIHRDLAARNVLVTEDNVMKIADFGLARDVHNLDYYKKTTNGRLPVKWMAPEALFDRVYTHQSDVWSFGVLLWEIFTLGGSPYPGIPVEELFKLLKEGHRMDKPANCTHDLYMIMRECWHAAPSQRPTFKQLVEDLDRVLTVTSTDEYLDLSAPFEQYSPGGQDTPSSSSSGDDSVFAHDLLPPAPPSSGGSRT
GraphPad prism3 was used to analyze the data.
As for `COc1cc(OC)c(F)c(N2Cc3cnc(-c4cn(C)nc4C)cc3N(c3ccc4cn[nH]c4c3)C2=O)c1F` [Example 133, 3-(2,6-difluoro-3,5-dimethoxyphenyl)-7-(1,3-dimethyl-1H-pyrazol-4-yl)-1-(1H-indazol-6-yl)-3,4-dihydropyrido[4,3-d]pyrimidin-2(1H)-one], the FGFR1/FGFR3 is given as above 3 and the FGFR4/FGFR3 was above 5.
Regarding `COc1cc(OC)c(F)c(N2Cc3cnc(-c4cn(C)nc4C)cc3N(c3ccc(F)c(F)c3)C2=O)c1F` [Example 102, 3-(2,6-difluoro-3,5-dimethoxyphenyl)-1-(3,4-difluorophenyl)-7-(1,3-dimethyl-1H-pyrazol-4-yl)-3,4-dihydropyrido[4,3-d]pyrimidin-2(1H)-one], the FGFR1/FGFR3 is listed as above 3 and the FGFR4/FGFR3 was above 10.
For `COc1cc(OC)c(F)c(N2Cc3cnc(-c4cn(CCC5CCNCC5)nc4C)cc3C3(CC3)C2=O)c1F` [Example 165, 2′-(2,6-difluoro-3,5-dimethoxyphenyl)-6′-(3-methyl-1-(2-(piperidin-4-yl)ethyl)-1H-pyrazol-4-yl)-1′H-spiro[cyclopropane-1,4′-[2,7]naphthyridin]-3′(2′H)-one] the same measures were above 3 and above 3.
The matching figures for `COc1cc(OC)c(F)c(N2Cc3cnc(-c4cn(C)nc4C)cc3N(c3ccc(F)c(C#N)c3)C2=O)c1F` [Example 66, 5-(3-(2,6-difluoro-3,5-dimethoxyphenyl)-7-(1,3-dimethyl-1H-pyrazol-4-yl)-2-oxo-3,4-dihydropyrido[4,3-d]pyrimidin-1(2H)-yl)-2-fluorobenzonitrile]: above 5 and above 5.
For `COc1cc(OC)c(F)c(N2Cc3cnc(-c4cn(C)nc4C)cc3N(Cc3csc(C)n3)C2=O)c1F` [Example 95, 3-(2,6-difluoro-3,5-dimethoxyphenyl)-7-(1,3-dimethyl-1H-pyrazol-4-yl)-1-((2-methylthiazol-4-yl)methyl)-3,4-dihydropyrido[4,3-d]pyrimidin-2(1H)-one] the same measures were above 5 and above 10.
With `COc1cc(OC)c(F)c(N2Cc3cnc(-c4cn(C)nc4C)cc3N(c3ccc(C(=O)N(C)C)cc3)C2=O)c1F` [Example 113, 4-(3-(2,6-difluoro-3,5-dimethoxyphenyl)-7-(1,3-dimethyl-1H-pyrazol-4-yl)-2-oxo-3,4-dihydropyrido[4,3-d]pyrimidin-1(2H)-yl)-N,N-dimethylbenzamide], the FGFR1/FGFR3 was above 3 and the FGFR4/FGFR3 is on record as above 5.
The matching figures for `COc1cc(OC)c(F)c(N2Cc3cnc(-c4cn(C)nc4C)cc3N(c3ccc(-c4nnc(C)o4)cc3)C2=O)c1F` [Example 115, 3-(2,6-difluoro-3,5-dimethoxyphenyl)-7-(1,3-dimethyl-1H-pyrazol-4-yl)-1-(4-(5-methyl-1,3,4-oxadiazol-2-yl)phenyl)-3,4-dihydropyrido[4,3-d]pyrimidin-2(1H)-one]: above 3 and above 5.
For `COc1cc(OC)c(F)c(N2Cc3cnc(-c4cn(C)nc4C)cc3N(Cc3cnn(C)c3C)C2=O)c1F` [Example 48, 3-(2,6-difluoro-3,5-dimethoxyphenyl)-7-(1,3-dimethyl-1H-pyrazol-4-yl)-1-[(1,5-dimethyl-1H-pyrazol-4-yl)methyl]-3,4-dihydropyrido[4,3-d]pyrimidin-2(1H)-one] the same measures were above 10 and above 10.
The matching figures for `COc1cc(OC)c(F)c(N2Cc3cnc(-c4cn(C)nc4C)cc3N(c3cnc(C)cn3)C2=O)c1F` [Example 107, 3-(2,6-difluoro-3,5-dimethoxyphenyl)-7-(1,3-dimethyl-1H-pyrazol-4-yl)-1-(5-methylpyrazin-2-yl)-3,4-dihydropyrido[4,3-d]pyrimidin-2(1H)-one]: above 3 and above 10.
With `COc1cc(OC)c(F)c(N2Cc3cnc(-c4cn(C)nc4C)cc3N(C3CC3)C2=O)c1F` [Example 83, 1-cyclopropyl-3-(2,6-difluoro-3,5-dimethoxyphenyl)-7-(1,3-dimethyl-1H-pyrazol-4-yl)-3,4-dihydropyrido[4,3-d]pyrimidin-2(1H)-one], the FGFR1/FGFR3 is above 5 and the FGFR4/FGFR3 is listed as above 5.
`CCCNC(=O)c1ccc(-c2cc3c(cn2)CN(c2c(F)c(OC)cc(OC)c2F)C(=O)N3CC)cn1` [Example 179, 5-(3-(2,6-difluoro-3,5-dimethoxyphenyl)-1-ethyl-2-oxo-1,2,3,4-tetrahydropyrido[4,3-d]pyrimidin-7-yl)-N-propylpicolinamide]: the FGFR1/FGFR3 is given as above 5 and the FGFR4/FGFR3 was above 10.
The matching figures for `CCn1cnc(-c2cc3c(cn2)CN(c2c(F)c(OC)cc(OC)c2F)C(=O)C32CC2)c1` [Example 53, 2′-(2,6-difluoro-3,5-dimethoxyphenyl)-6′-(1-ethyl-1H-imidazol-4-yl)-1′H-spiro[cyclopropane-1,4′-[2,7]naphthyridin]-3′(2′H)-one]: above 5 and above 5.
The matching figures for `COc1cc(OC)c(F)c(N2Cc3cnc(-c4cn(C)nc4C)cc3N(Cc3ccnc(C)c3)C2=O)c1F` [Example 68, 3-(2,6-difluoro-3,5-dimethoxyphenyl)-7-(1,3-dimethyl-1H-pyrazol-4-yl)-1-((2-methylpyridin-4-yl)methyl)-3,4-dihydropyrido[4,3-d]pyrimidin-2(1H)-one]: above 5 and above 5.
For `COc1cc(OC)c(F)c(N2Cc3cnc(-c4cn(C)nc4C)cc3N(c3ccc4nc(C)oc4c3)C2=O)c1F` [Example 75, 3-(2,6-difluoro-3,5-dimethoxyphenyl)-7-(1,3-dimethyl-1H-pyrazol-4-yl)-1-(2-methylbenzo[d]oxazol-6-yl)-3,4-dihydropyrido[4,3-d]pyrimidin-2(1H)-one] the same measures were above 5 and above 3.
Consider `COc1cc(OC)c(F)c(N2Cc3cnc(-c4cn(C5CCS(=O)(=O)C5)nc4C)cc3C3(CC3)C2=O)c1F` (centres unmarked) [Example 54, 2′-(2,6-difluoro-3,5-dimethoxyphenyl)-6′-[1-(1,1-dioxidotetrahydro-3-thienyl)-3-methyl-1H-pyrazol-4-yl]-1′,2′-dihydro-3′H-spiro[cyclopropane-1,4′-[2,7]naphthyridin]-3′-one], for which the FGFR1/FGFR3 is given as above 5 and the FGFR4/FGFR3 was above 1.
On to `COc1cc(OC)c(F)c(N2Cc3cnc(-c4cn(CC#N)nc4C)cc3C3(CC3)C2=O)c1F` [Example 153, 2-(4-(2′-(2,6-difluoro-3,5-dimethoxyphenyl)-3′-oxo-2′,3′-dihydro-1′H-spiro[cyclopropane-1,4′-[2,7]naphthyridine]-6′-yl)-3-methyl-1H-pyrazol-1-yl)acetonitrile], for which the FGFR1/FGFR3 was above 5 and the FGFR4/FGFR3 was above 3.
As for `CCN1C(=O)N(c2c(F)c(OC)cc(OC)c2F)Cc2cnc(-c3ccccc3)cc21` [Example 22, 3-(2,6-difluoro-3,5-dimethoxyphenyl)-1-ethyl-7-phenyl-3,4-dihydropyrido[4,3-d]pyrimidin-2(1H)-one], the FGFR1/FGFR3 is above 5.
Consider `COc1cc(OC)c(F)c(N2Cc3cnc(-c4cn(C)nc4C)cc3N(Cc3ccc(F)cc3)C2=O)c1F` [Example 34, 3-(2,6-difluoro-3,5-dimethoxyphenyl)-7-(1,3-dimethyl-1H-pyrazol-4-yl)-1-(4-fluorobenzyl)-3,4-dihydropyrido[4,3-d]pyrimidin-2(1H)-one], for which the FGFR1/FGFR3 is reported as above 5 and the FGFR4/FGFR3 is recorded as above 10.
For `COc1cc(OC)c(F)c(N2Cc3cnc(-c4cn(C)nc4C)cc3N(c3ccc4ncsc4c3)C2=O)c1F` [Example 41, 1-(1,3-benzothiazol-6-yl)-3-(2,6-difluoro-3,5-dimethoxyphenyl)-7-(1,3-dimethyl-1H-pyrazol-4-yl)-3,4-dihydropyrido[4,3-d]pyrimidin-2(1H)-one] the same measures were above 1 and above 5.
For `COc1cc(OC)c(F)c(N2Cc3cnc(-c4cnn(CCC5CCN(S(C)(=O)=O)CC5)c4)cc3C3(CC3)C2=O)c1F` [Example 148, 2′-(2,6-difluoro-3,5-dimethoxyphenyl)-6′-(1-(2-(1-(methylsulfonyl)piperidin-4-yl)ethyl)-1H-pyrazol-4-yl)-1′H-spiro[cyclopropane-l,4′-[2,7]naphthyridin]-3′(2′H)-one] the same measures were above 10 and above 3.
The matching figures for `CCc1cc(CN2C(=O)N(c3c(F)c(OC)cc(OC)c3F)Cc3cnc(-c4cn(C)nc4C)cc32)no1` [Example 64, 3-(2,6-difluoro-3,5-dimethoxyphenyl)-7-(1,3-dimethyl-1H-pyrazol-4-yl)-1-((5-ethylisoxazol-3-yl)methyl)-3,4-dihydropyrido[4,3-d]pyrimidin-2(1H)-one]: above 10 and above 10.
For the compound `CCN1C(=O)N(c2c(F)c(OC)cc(OC)c2F)Cc2cnc(-c3ccc(CC#N)cc3)cc21` [Example 180, 2-(4-(3-(2,6-difluoro-3,5-dimethoxyphenyl)-1-ethyl-2-oxo-1,2,3,4-tetrahydropyrido[4,3-d]pyrimidin-7-yl)phenyl)acetonitrile], the FGFR1/FGFR3 is above 5 and the FGFR4/FGFR3 is above 5.
As for `COc1cc(OC)c(F)c(N2Cc3cnc(-c4cn(C)nc4C)cc3N(CC3CCOCC3)C2=O)c1F` [Example 37, 3-(2,6-difluoro-3,5-dimethoxyphenyl)-7-(1,3-dimethyl-1H-pyrazol-4-yl)-1-((tetrahydro-2H-pyran-4-yl)methyl)-3,4-dihydropyrido[4,3-d]pyrimidin-2(1H)-one], the FGFR1/FGFR3 is given as above 1 and the FGFR4/FGFR3 was above 10.
For `COc1cc(OC)c(F)c(N2Cc3cnc(-c4cn(C)nc4C)cc3N(Cc3cc(C)no3)C2=O)c1F` [Example 35, 3-(2,6-difluoro-3,5-dimethoxyphenyl)-7-(1,3-dimethyl-1H-pyrazol-4-yl)-1-((3-methylisoxazol-5-yl)methyl)-3,4-dihydropyrido[4,3-d]pyrimidin-2(1H)-one] the same measures were above 5 and above 10.
